Source: the Kinase Knowledgebase extract (Sharma et al. 2016)

Assays:
EGFR (human) = EGFR (human) (UniProt P00533); conditions: concentration not given here
CDK2 (human) = CDK2 (human) (UniProt P24941); assay: Enzyme Assay; conditions: concentration not given here

Sequence of EGFR (human) (P00533 whole entry, looked up): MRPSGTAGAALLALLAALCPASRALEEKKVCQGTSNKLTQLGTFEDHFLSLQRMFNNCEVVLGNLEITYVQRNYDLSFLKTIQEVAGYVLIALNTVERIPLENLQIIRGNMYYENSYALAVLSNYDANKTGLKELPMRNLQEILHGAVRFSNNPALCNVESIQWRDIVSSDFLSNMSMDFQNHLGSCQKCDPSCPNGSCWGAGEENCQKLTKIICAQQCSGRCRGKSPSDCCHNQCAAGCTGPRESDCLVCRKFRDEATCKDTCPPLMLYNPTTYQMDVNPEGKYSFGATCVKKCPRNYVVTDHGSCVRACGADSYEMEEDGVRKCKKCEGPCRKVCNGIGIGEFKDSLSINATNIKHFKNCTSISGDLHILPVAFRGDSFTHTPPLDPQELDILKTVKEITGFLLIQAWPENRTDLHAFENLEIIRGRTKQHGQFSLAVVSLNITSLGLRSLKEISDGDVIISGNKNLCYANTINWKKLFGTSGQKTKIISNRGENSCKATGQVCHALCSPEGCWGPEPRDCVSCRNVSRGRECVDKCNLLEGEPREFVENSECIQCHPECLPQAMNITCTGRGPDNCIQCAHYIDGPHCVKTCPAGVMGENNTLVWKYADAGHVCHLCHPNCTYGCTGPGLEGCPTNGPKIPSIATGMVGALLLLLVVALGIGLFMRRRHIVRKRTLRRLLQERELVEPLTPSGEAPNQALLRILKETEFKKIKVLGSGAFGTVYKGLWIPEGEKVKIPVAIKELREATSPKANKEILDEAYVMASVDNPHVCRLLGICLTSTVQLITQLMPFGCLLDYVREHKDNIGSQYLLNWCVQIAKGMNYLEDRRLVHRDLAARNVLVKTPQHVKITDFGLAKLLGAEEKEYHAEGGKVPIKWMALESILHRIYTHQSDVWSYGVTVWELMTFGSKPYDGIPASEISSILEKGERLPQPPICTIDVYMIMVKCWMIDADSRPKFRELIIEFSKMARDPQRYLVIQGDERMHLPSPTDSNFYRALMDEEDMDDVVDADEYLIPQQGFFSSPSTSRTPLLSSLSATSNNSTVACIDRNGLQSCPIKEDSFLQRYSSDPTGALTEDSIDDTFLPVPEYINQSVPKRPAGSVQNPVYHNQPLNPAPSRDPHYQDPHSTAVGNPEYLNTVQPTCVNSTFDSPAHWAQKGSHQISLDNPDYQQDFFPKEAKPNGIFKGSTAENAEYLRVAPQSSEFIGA

| inhibition (EGFR (human)) [%] | inhibition (CDK2 (human)) [%] | SMILES |
| --- | --- | --- |
| 27 | 7 | COc1ccc(C2=C(c3c[nH]c4ccccc34)C(=O)NC2=O)cc1OC |
| – | 58 | COc1cc2c3c(c4c5ccccc5n(C)c4c2c(OC)c1OC)C(=O)NC3=O |
| 3 | – | COc1ccc2[nH]c3c4c(OC)c(OC)c(OC)cc4c4c(c3c2c1)C(=O)NC4=O |
| 5 | – | COc1cc(C2=C(c3c(C)[nH]c4ccccc34)C(=O)NC2=O)cc(OC)c1OC |
